Patent publication US11397178B2, “Method of predicting progression of idiopathic pulmonary fibrosis and monitoring of therapeutic efficacy” (Cedars-Sinai Medical Center, priority 2016, dated 2022)

Experiments:
[1] = FDA approved treatment of IPF patients; cited from earlier work
[2] = test system: CCR10+ IPF Cell-Induced Fibrosis in NSG Mice; assay: Humanized NSG mouse model of IPF: BIBF1120 from day 35 (Masson's trichrome, hydroxyproline, flow cytometry); type: in vivo; conditions: for modulation of fibrosis in humanized NSG model of IPF: therapeutic treatment from day 35
Procedure: IPF cells were injected intravenously into NSG mice and beginning at day 35 after injection mice were treated either with a solutol vehicle or 60 mg/kg BIBF-1120 solubilized in solutol for 5 days a week over 4 weeks. (A-C) Depicted are representative images of Masson's Trichrome staining of non-humanized (A) and humanized NSG mice that received solutol (B) or BIBF-1120 (C). (D) Depicted is the hydroxyproline in the lungs of non-humanized or humanized NSG mice that received solutol or BIBF-1120. Data are mean±s.e.m.; n=5-10/group. (E-F) Solutol- or BIBF1120-treated NSG humanized mouse lungs were analyzed by flow cytometry for human CD45, EpCAM and/or CCR10 expression. Depicted is the average number of CD45^+ CCR10^+ (E) and Lin^− CCR10^+ (F) cells in humanized NSG mice treated with solutol or BIBF1120. Data are mean±s.e.m.; n=5-10/group. p values indicated
Six to eight-week old, female, pathogen free NOD Cg-Prkdc^SCID IL2rg^Tm1wil Szi (NSG) or NOD.Cg-Prkdc^SCID IL2rg^tm1Wil Tg(CAG-EGFP) 10sb/SzJ (NSG-GFP) were purchased from Jackson Laboratories and housed in Cedars-Sinai Medical Center's high isolation animal rooms. NSG mice were allowed a minimum of one week to acclimate in the facility and then these mice either received nothing (i.e., non-humanized) 1×10^6 IPF cells by intravenous injection (i.e. humanized). In most in vivo experiments, the IPF cells used were removed from liquid N2 storage, rapidly thawed, and washed in serum-free medium prior to injection into NSG mice. Humanized NSG mice received KB004 (i.e., anti-EphA3 mAb supplied by Kalobios; 5 mg/kg) or KB243 (i.e., appropriate IgG control supplied by Kalobios; 5 mg/kg) either from days 0 to 35 or from days 35 to 63 by intraperitoneal injection twice weekly. […] Other groups of humanized NSG mice received either vehicle (i.e., solutol) or BIBF1120 (Cayman Chemicals) by oral gavage beginning at day 35 after IPF cell injection. Vehicle or drug was administered 5 days a week until day 63 after IPF cell injection. All NSG groups were monitored daily and mice were sacrificed if there is evidence for morbidity such as weight loss of more than 20%, loss of fur, paralysis and/or lack of responsiveness when handled.
Murine lung cellular suspensions were generated using a mouse lung dissociation kit, C-tubes, and a GentleMacs dissociator (Miltenyi Biotech). Spleens were dissociated using a sterile rubber tip of 1 ml syringe plunger and 100 μm 50 ml tube filters (BD bioscience) as follows: isolated spleens were placed in 1 ml of sterile complete medium until all the samples were collected. Sterile 50 ml conical tube filters were placed on top of sterile 50 ml conical tubes and were equilibrated by pipetting 1 ml of calcium and magnesium free DPBS (DBPS; Cellgro) through the filters. Spleens were transferred to a sterile 50 ml filter, cellular suspensions were generated using a sterile rubber tip of a syringe plunger, and splenic material was flushed with 5 ml of DPBS. Lung and splenic cell suspensions were centrifuged and resuspended in 1 ml of RBC lysis buffer (Biolegend), incubated at room temperature for 1-2 min and then equilibrated by adding 25 ml of DPBS to each tube. Cells were centrifuged and resuspended in flow cytometric wash/staining buffer (DPBS+2% FBS) in the presence of human and mouse Fc receptor blocking antibodies (Biolegend). Cells were then stained with anti-human-CD45, -EpCAM and -CCR10 antibodies for 20 min at 4° C. Unstained, isotype controls, fluorescent minus one controls and staining in non-humanized murine lung and spleen suspensions were utilized to gate out any non-specific antibody binding and background fluorescence. CCR10 antibodies were validated via the enrichment for CCR10 transcripts in magnetically sorted CCR10^+ cells versus non-sorted normal and IPF explant cells (FIG. 35). […]

[3] = test system: normal and IPF lung fibroblasts; assay: Soluble collagen 1 ELISA of lung fibroblast conditioned supernatants; type: cell-based, human
Procedure: Lung fibroblasts (5000/well) were plated into a 96 well plate and incubated overnight. After incubation, cells were stimulated with 20 ng/ml of IL1β or vehicle in the presence or absence of 20 μg/ml of EphA3-Fc or IgG antibodies (supplied by Kalobios) for 24 and 72 h. After stimulation, conditioned supernatants were collected and the cells were washed and fixed with 4% paraformaldehyde solution in PBS for 10 min at room temperature.
Lung fibroblast conditioned supernatants were diluted 1:5 in DPBS. Purified Collagen 1 (STEMCELL Technologies Inc), diluted in 1:5 DBPS diluted complete medium, was utilized to generate an 8-point collagen 1 standard ranging from 200-0 ng/ml. Fifty microliters of the supernatants and standards were coated onto multisorb 96 well plates (Thermo Fisher Scientific) overnight at 4° C. After coating, the plates were washed and blocked with 200 μl of 3% BSA solution in DPBS (Lonza) for 1 h at room temperature on an orbital shaker. After blocking, plates were washed and 50 μl of 200 ng/ml biotin-conjugated anti collagen-1 antibody (Abcam Ab24821) was added to each well and the plates were incubated for 2 h at room temperature on an orbital shaker. […] Data were acquired by reading the absorbance at 405 nm using a Synergy H1 microplate reader (BioTek Instruments Inc.). […]

[4] = test system: normal and IPF lung fibroblasts; assay: Flow cytometry for cell surface EphA3 expression on stimulated lung fibroblasts; type: cell-based, human; conditions: 20 ng/ml; twenty-four hours after stimulation
Procedure: IPF surgical lung biopsy samples were obtained. IPF lung fibroblasts were generated by mechanically dissociating IPF lung biopsies or explants into sterile tissue culture plates. After mechanical dissociation, tissues were passed through a 25-ml pipette for 10 times, in DMEM (Lonza)+15% FBS (Cell Generation), 100 IU penicillin and 100 μg/ml streptomycin (Mediatech), 292 μg/ml L-Glutamine (Mediatech) and 100 μg/ml of Primocin (Invivogen) (complete medium). Cells were cultured at 37° C. and 10% CO2, medium was changed twice a week by careful removal of the liquid and retaining the minced tissues. This process was repeated for 1-2 weeks, until stromal colonies were apparent, after which fibroblast colonies were trypsinized and passaged. After 4-5 passages, fibroblast purity was confirmed using flow cytometry and/or qPCR analysis for CD45, EpCAM and CD31. Fibroblasts were then cultured in complete medium; fresh medium was added to the fibroblasts every 2-3 days and the cells were passaged when they were 70-90% confluent. […] After treatment, cells were then analyzed by flow cytometry for cell surface EphA3 expression.
Lung fibroblasts were plated and treated as described above. […] Flow cytometric data were acquired using a MACSQuant 10 (Miltenyi Biotech) flow cytometer and data were analyzed using Flowjo software V10.2 (freest& Inc.).

lung fibroblast = assay: Lung fibroblast invasiveness (not shown); type: cell-based, human; conditions: CCL28; data not shown
[5] = test system: normal and IPF lung fibroblasts; assay: In cell αSMA ELISA in lung fibroblasts; type: cell-based, human; conditions: CCL28; data not shown
Procedure: Lung fibroblasts (5000/well) were plated into a 96 well plate and incubated overnight. […] After stimulation, conditioned supernatants were collected and the cells were washed and fixed with 4% paraformaldehyde solution in PBS for 10 min at room temperature.
After fixation, cells were washed and permeabilized with 0.5% Triton X-100 in DPBS for 10 min, washed and endogenous peroxidase activity was blocked by adding a solution of 0.3% H2O2 in DPBS to the cells and incubating the cells with the solution for 20 min at room temperature. Cells were then washed and wells were blocked with a 1% BSA solution in DPBS for 30 min at room temperature. After blocking, cells were incubated with 500 ng/ml of anti-czSMA antibodies (Clone 1A4, Abcam) overnight at 4° C. on a rocker. […] The reaction was then stopped by adding 50 μl of 2N sulfuric acid and data were acquired by reading the absorbance at […] using a Synergy H1 microplate reader (BioTek Instruments Inc.). […] Data were acquired by reading the absorbance at 595 nm using a Synergy H1 microplate reader (BioTek Instruments Inc.). Ratios were generated from αSMA/β-tubulin absorbance data and the results were normalized to vehicle. The fold change after 24 and 72 h relative to vehicle was then determined and depicted in the figures.

[6] = 60 mg/kg from day 35, day 63, flow cytometry

## COC(=O)c1ccc2c(c1)NC(=O)/C2=C(\Nc1ccc(N(C)C(=O)CN2CCN(C)CC2)cc1)c1ccccc1 [BIBF1120, Nintedanib]
[1]
  disease progression in IPF patients: effective at slowing down, but not halting, disease progression
[2]; 60 mg/kg from day 35, day 63
  lung hydroxyproline compared with non-humanized NSG lungs: elevated
[2]; [6]
  CD45+ CCR10+ cells in NSG lungs compared with vehicle-treated group: greater
  Lin- CCR10+ cells in NSG lungs compared with vehicle-treated group: greater
[2]; 60 mg/kg in solutol from day 35, lungs at day 63 after IPF cell injection
  lung fibrosis (Masson's trichrome staining): showed lung fibrosis
[2]
  modulation of fibrosis in humanized NSG model of IPF: ineffective at modulating fibrosis
[2]; listed as nintedanib
  modulation of fibrosis in humanized NSG model of IPF: did not therapeutically modulate fibrosis

## Cc1ccc(=O)n(-c2ccccc2)c1 [ESBRIET, Pirfenidone]
[1]
  disease progression in IPF patients: effective at slowing down, but not halting, disease progression

## IL1β: cytokine Interleukin 1 beta used to stimulate lung fibroblasts (R&D systems) [reference compound]
[3]; IL1β 20 ng/ml, after 24 and, to a lesser extent, 72 h
  collagen 1 in normal and IPF lung fibroblasts: induced
[4]
  surface EphA3 on normal and IPF lung fibroblasts: significantly unregulated

B1: CCL28: chemokine, CCR10 ligand (protein, UniProt Q9NRJ3 20-127, looked up)
C-C motif chemokine 28: SEAILPIASSCCTEVSHHISRRLLERVNMCRIQRADGDCDLAAVILHVKRRRICVSPHNHTVKQWMKVQAAKKNGKGNVCHRKKHHGKRNSNRAHQGKHETYGHKTPY
[3]; CCL28, data not shown
  collagen 1 secretion by lung fibroblasts: did not consistently modulate
Lung fibroblast
  lung fibroblast invasiveness: did not consistently modulate
[5]
  αSMA protein expression in lung fibroblasts: did not consistently modulate
